Measurements: EP2671597A1, “Chimeric constructs between glioma-homing peptide and cell-penetrating peptides, gHoPe2” (Cepep III AB, priority 2012, dated 2013)
Entries after “also recorded” stand apart in the source; their conditions may differ. Ends that are not written are not given here. FAM = 5(6)-carboxyfluorescein

Tests used:
human glioma cells = test: Cellular uptake by flow cytometry (FACS); assay type: cell-based; conditions: 30 min incubation (Figure 4)
Procedure: U87, HEK and Hela cells (5×10^4) were seeded 24 h prior to experiments into 24-well plates. Cells were incubated for 30 min in complete media after treatment with the peptide constructs. Thereafter, cells were washed four times with PBS and once with trypsin, suspended in ice-cold PBS and flow cytometry analysis was carried out with a BD LSR II flow cytometer (BD Biosciences, San Jose, CA, USA) equipped with a 488 nm argon laser and analyzed with FACSDiva software. The filter settings for excitation and emission were 480/530 nm bandpass (FL1) for FITC. Live cells were gated by forward/side scattering from a total of 10000 events.
(§1) The cellular uptake of the chimeric peptides gHoPe2 and gHoPe3 in U87 cells, using confocal microscopy and flow cytometry is depicted in Figures 3 and 4, respectively.

U87 cells [1] = test: LDH leakage assay (membrane integrity); assay type: cell-based, human; conditions: FAM-labelled peptides, up to 20 µM, 48h, compared to 0.2% of Triton
Procedure: Membrane integrity was evaluated using LDH leakage assay (SIGMA-ALDRICH™ St. Louise, MO, USA), which measures lactate dehydrogenase release. Briefly, 1×10^4 cells were seeded 24h in 96-well plates before treatment with the peptides or peptide-drug conjugates, which was conducted in complete medium for 48h. Thereafter, LDH leakage was assessed according to the manufacturer's protocol. Untreated cells were defined as no leakage and 100% leakage was defined as total LDH release by lysing cells in 0.2% Triton X-100 in HKR buffer.
(§2) All figures are presented as mean ± SEM. The cell uptake data represent three independent experiments performed in duplicate. For toxicity measurements, a decrease in viability was considered significant at p <.001 using ANOVA Dunnett's multiple comparison test.

U87 cells [2] = test: MTS cell viability (proliferation) assay; assay type: cell-based, human; conditions: FAM-labelled peptides, up to 20 µM, 24h
Procedure: Long-term toxicity was evaluated using an MTS proliferation assay (Promega, Madison, WI, USA). The MTS assay measures the activity of mitochondrial dehydrogenases to convert tetrazolium salts into formazan. Briefly, 1×10^4 cells were seeded 24h in 96-well plates before treatment with the peptides or peptide-drug conjugates, which was conducted in complete medium for 24h. Thereafter, MTS proliferation assay was used according to the manufacturer's protocol. Untreated cells were defined as 100% viable.
as §2

human glioma cells (U87) = test: Cellular internalization by confocal microscopy; assay type: cell-based; conditions: 10 µM, 30 min incubation (Figure 3)
Procedure: (§3) U87 cells (1×10^4) were seeded in Lab-Tek® 8-well chamber slides to reach 50% confluence one day prior to experimentation. After 30 min of incubation with the peptide constructs in complete medium at 37°C, cells were washed four times with PBS, followed by the addition of trypan blue (0.1 %) in OptiMEM and examined using Olympus IX81 inverted microscope equipped with FluoView 1000 confocal system using a 60x water-immersion and 100x oil-immersion objectives and excitation at 488 nm (fluorescein). For the membrane association experiments the cells were incubated with FAM-labeled peptide for 30 min at 37°C in complete medium. After the incubation period, cells were washed once with PBS and re-suspended in fresh OptiMEM medium.
as §1

HeLa cells = test: Confocal microscopy, association of FAM-labelled targeting peptide with cells; assay type: cell-based; conditions: 20 µM, 30 minutes
Procedure: (§4) The human embryonic kidney 293 cell line (HEK 293) and human glioblastoma-astrocytoma, epithelial-like cell line U87 MG (American Type Culture Collection via LGC, Sweden) and cervical cancer HeLa cells were cultured in Dulbecco's Modified Eagle Medium (DMEM) with L-glutamine. Medium was supplemented with 10% FBS, sodium pyruvate (1 mM), penicillin (100 U/ml), streptomycin (100 µg/ml) and 1% nonessential amino acids (further denoted as complete medium) (PAA Laboratories GmbH, Austria). Cell cultures were cultivated at 37°C in a humidified 5% CO2 incubator.
as §3, with “OptiMEM medium. […]” for “OptiMEM medium.”

[3] = system: intracranial glioblastoma; test: Biodistribution of FAM-labelled peptides, intracranial tumour model; assay type: in vivo, mice; conditions: i.v.; for uptake in lungs, heart, spleen, muscle and skin: animals with intracranial tumours, 3 h (Figure 8); for localization in intracranial tumour: 3 h before tissue collection, FAM fluorescence (Figures 6, 7)
Procedure: (§5) Localization of the peptide vectors was assessed postmortem after injecting FAM-labeled peptides in homozygous female nude mice (C.Cg/AnNTac-Foxn1nu, Taconic), bearing tumor xenografts either intracranially or subcutaneously. 8×10^5 U87 cells were resuspended in 100 µl (s.c tumor model) or in 5 µl (intracranial tumor model) of fresh DMEM medium, without serum and antibiotics. The xenografting was performed by implanting the cell suspension subcutaneously or intracranially into one of the striatums (stereotaxic coordinates A=+1, L=+2, V=+3.5). At the appearance of the first signs of tumor growth (for the subcutaneous tumors: tumor size of approx 300 mm^3; for the intracranial tumors: the first sign is usually weight loss), mice were injected i.v. (via tail vein) with the peptide constructs. For the biodistribution, 100 µl of 200 µM FAM-labeled peptide suspension (in saline) was used. This represents a dose of 4 mg/kg for a mouse of 20 g. At 3h post-injection, the animals were anesthetized and intracardially perfused with 50 ml of PBS, followed by 50 ml of fixation solution (4% w/v paraformaldehyde in PBS, pH 7.4). Tissues were collected, postfixed for 2h in the same fixation solution, cryoprotected in sucrose (10% for 24h, followed by 30% for 1 week, at 4°C), snap frozen in 2-methylbutane (AppliChem) kept on dry ice. The tissues were cut on a cryostat with a thickness of 10-15 µm, counterstained with DAPI (AppliChem) and mounted using Vectashield (Vector Labs) mounting media.
(§6) The biodistribution of FAM-labeled gHoPe2 was determined in two mouse tumour models. FAM-labeled gHo and gHoPe2 were injected 3h before tissue collection. The circulation time of 3 h was chosen from initial pilot experiments with 1 h, 3h, 6h and 24h circulation times, where the highest fluorescence in the tumor occurred at 3h.
Secondly, biodistribution of FAM-labeled gHo and gHoPe2, as well as FAM-labeled pVEC and gHoPe3 was assessed in a mouse model of intracranial glioblastoma. To estimate the general distribution of gHoPe2 within the glioma-containing brain, the whole coronal section was reconstructed from single microscopic images.

HEK cells = test: Confocal microscopy, association of FAM-labelled targeting peptide with cells; assay type: cell-based, human; conditions: 20 µM, 30 minutes
Procedure: as §4, §3
(§7) To confirm binding of the targeting peptide with glioma cells, gHo peptide was labeled with fluorescent marker FAM (see the composition in Table 1) and incubated with U87 glioma cells as well as with two non-neuronal cell lines, HeLa and HEK, for 30 minutes at the room temperature, followed by mild washing of the cells.

U87 glioma cells = test: as above; assay type: cell-based, human
Procedure: as §4, §3, §7

subcutaneous U87 tumor = test: Biodistribution of FAM-labelled peptides, subcutaneous tumour model; assay type: in vivo, mice; conditions: for localization in tumor tissue: i.v., 3 h before tissue collection, FAM fluorescence of cryosections (Figure 5)
Procedure: as §5, §6
Firstly, a mouse model of subcutaneous U87 tumor was used. […] We detected no FAM-labeled gHo in tumor tissue and none of the peptides in the (intact) brain tissue, the kidney, and liver.

subcutaneous U87 tumors = test: Antitumour effect in vivo, tumour growth; parameters: species or system mice; conditions: 8.3 mg/kg (369 µM, 100 µl) i.v. twice a week; Tukey post-hoc p<.05 (Figure 13)
Procedure: Localization of the peptide vectors was assessed postmortem after injecting FAM-labeled peptides in homozygous female nude mice (C.Cg/AnNTac-Foxn1nu, Taconic), bearing tumor xenografts either intracranially or subcutaneously. 8×10^5 U87 cells were resuspended in 100 µl (s.c tumor model) or in 5 µl (intracranial tumor model) of fresh DMEM medium, without serum and antibiotics. The xenografting was performed by implanting the cell suspension subcutaneously or intracranially into one of the striatums (stereotaxic coordinates A=+1, L=+2, V=+3.5). At the appearance of the first signs of tumor growth (for the subcutaneous tumors: tumor size of approx 300 mm^3; for the intracranial tumors: the first sign is usually weight loss), mice were injected i.v. (via tail vein) with the peptide constructs. For the biodistribution, 100 µl of 200 µM FAM-labeled peptide suspension (in saline) was used. This represents a dose of 4 mg/kg for a mouse of 20 g. […]
The tumor treatments were performed using 1 mg/kg doxorubicin (369 µM, 100 µl, for an animal of 20 g) and an equivalent dose (8.3 mg/kg) of dox-gHoPe2 (369 µM, 100 µl) i.v. twice a week. The subcutaneous tumor dimensions were measured using calibre; tumor volume was calculated as (length × width^2)/2.
The efficacy of dox-gHoPe2 was assessed in the model of subcutaneous U87 tumors. […]

LLIILRRRIRKQAHAHSK-NH2 [FAM-pVEC] ({FAM}-LLIILRRRIRKQAHAHSK-NH2) [pVEC N-terminally labelled with 5(6)-carboxyfluorescein, reference compound]
cellular uptake (human glioma cells): highest
LDH leakage (membrane leakage) (U87 cells [1]): did not affect cell viability
cell viability (MTS) (U87 cells [2]): did not affect cell viability
Cellular internalization (human glioma cells (U87)): exhibited cellular uptake of varying degrees

NHQQQNPHQPPM-NH2 [gHo, glioma-homing targeting peptide]
cellular uptake (human glioma cells): did not internalize
LDH leakage (membrane leakage) (U87 cells [1]): did not induce any significant membrane leakage
Cellular internalization (human glioma cells (U87)): did not internalize
binding to HeLa cells (HeLa cells): not and did not bind
uptake in lungs, heart, spleen, muscle and skin [3]: No uptake
localization in intracranial tumour [3]: not
binding to HEK cells (HEK cells): not and did not bind
Association of the targeting peptide gHo with glioma cells (U87) (U87 glioma cells; 20 µM (Figure 2)): associated
association of gHo with U87 (U87 glioma cells; FAM-labelled peptide, all tested concentrations 1-20 µM, 30 minutes, mild washing): confirmed association

LLIILRRRIRKQAHAHSK-NHQQQNPHQPPM-NH2 [FAM-gHoPe2]
localization in tumor tissue (subcutaneous U87 tumor): localizes in tumours; also recorded: homing
circulation time of the highest fluorescence in the tumor (subcutaneous U87 tumor; initial pilot experiments with 1 h, 3h, 6h and 24h circulation times, tumour model not stated): 3 h
cellular uptake (human glioma cells): highest; also recorded: significantly differed from the uptake values of FAM-gHoPe3 (main effect p<.01, Tukey post hoc) and FAM-gHo (p<.001)
LDH leakage (membrane leakage) (U87 cells [1]): did not affect cell viability
LDH leakage (membrane leakage) (U87 cells [1]; listed as gHoPe2): did not induce any significant membrane leakage
cell viability (MTS) (U87 cells [2]): did not affect cell viability
cell viability (MTS) (U87 cells [2]; listed as gHoPe2): did not induce any toxic effects
Cellular internalization (human glioma cells (U87)): exhibited cellular uptake of varying degrees
uptake in lungs, heart, spleen, muscle and skin [3]: No uptake
presence in adjacent intact brain, kidney and liver ([3]; 3 h (Figure 7)): not
localization in intracranial tumour [3]: localizes in tumours
localization in intracranial tumour ([3]; listed as FAM-labelled gHoPe2): global FAM localization in the tumour area
localization in intracranial tumour ([3]; listed as gHoPe2): can be seen in the tumor area; also recorded: specific localization
localization in the adjacent intact brain ([3]; whole coronal section, 3 h (Figure 6)): not

NHQQQNPHQPPM-LLIILRRRIRKQAHAHSK-NH2 [FAM-gHoPe3]
LDH leakage (membrane leakage) (U87 cells [1]): did not affect cell viability
LDH leakage (membrane leakage) (U87 cells [1]; listed as gHoPe3): did not induce any significant membrane leakage
cell viability (MTS) (U87 cells [2]): did not affect cell viability
cell viability (MTS) (U87 cells [2]; listed as gHoPe3): did not induce any toxic effects
Cellular internalization (human glioma cells (U87)): exhibited cellular uptake of varying degrees; also recorded: internalized, but to a lesser extent

XCLLIILRRRIRKQAHAHSK-NHQQQNPHQPPM-NH2 [Dox-gHoPe2]
tumor size versus untreated group (subcutaneous U87 tumors): significantly smaller

NHQQQNPHQPPM-NH2 [FAM-gHo] ({FAM}-NHQQQNPHQPPM-NH2; also: FAM label, place not given here) [gHo N-terminally labelled with 5(6)-carboxyfluorescein]
localization in tumor tissue (subcutaneous U87 tumor): detected no
Cellular internalization (human glioma cells (U87)): no uptake

LLIILRRRIRKQAHAHSK-NH2 [pVEC, 18-amino acid cell-penetrating peptide derived from murine vascular endothelial-cadherin, reference compound]
LDH leakage (membrane leakage) (U87 cells [1]): did not induce any significant membrane leakage
cell viability (MTS) (U87 cells [2]): did not induce any toxic effects
Cellular internalization (human glioma cells (U87)): internalized very efficiently
